Reference: patent US20100041597A1, “PEPTIDES TARGETED TO PROTEIN KINASE C ISOFORMS AND USES THEREOF” (priority 2005, published 2010)

What was measured:
[1] = biological target: T1, PKC-ι (Homo sapiens, UniProt P41743); test: Competitive binding assay using cell extracts (Western blot); design: key: —: no detectable affinity; Low to very low affinity at 10X or 20X or both PRE concentrations in at least one cell line in the cell extract assay; Low affinity in purified isoform assay.; Moderate affinity at 10X or 20X or both PRE concentrations in at least one cell line in the cell extract assay.; High affinity at 10X or 20X or both PRE concentrations in at least one cell line in the cell extract assay; High affinity in purified isoform assay; conditions: Cell extract; PRE at 10X, 20X antibody concentration; Table 20
T1 construct: cytoplasmic extracts from different cell lines expressing appropriate PKC isoforms; endogenous in cells; host or cells: MDAMB231, LnCAP, H661, CCD16Lu, Du145, LS180 (human, from ATCC)
T1 sequence (P41743 1-596): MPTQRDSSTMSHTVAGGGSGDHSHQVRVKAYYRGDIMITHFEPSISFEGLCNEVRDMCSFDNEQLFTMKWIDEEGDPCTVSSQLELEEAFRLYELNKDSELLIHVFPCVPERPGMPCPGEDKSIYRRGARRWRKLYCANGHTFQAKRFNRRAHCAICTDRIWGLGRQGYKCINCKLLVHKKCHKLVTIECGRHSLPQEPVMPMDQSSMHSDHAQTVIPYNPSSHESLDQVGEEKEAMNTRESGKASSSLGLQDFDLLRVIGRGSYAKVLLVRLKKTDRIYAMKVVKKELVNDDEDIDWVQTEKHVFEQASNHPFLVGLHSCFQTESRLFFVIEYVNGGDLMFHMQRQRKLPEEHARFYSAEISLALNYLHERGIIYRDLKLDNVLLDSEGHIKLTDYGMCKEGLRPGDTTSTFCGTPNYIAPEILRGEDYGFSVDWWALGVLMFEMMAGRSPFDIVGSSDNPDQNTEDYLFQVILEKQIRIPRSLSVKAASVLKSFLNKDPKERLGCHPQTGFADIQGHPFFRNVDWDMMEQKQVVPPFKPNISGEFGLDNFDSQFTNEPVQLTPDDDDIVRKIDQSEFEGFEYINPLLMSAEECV
Experimental: (§1) Binding efficiency and specificity of the peptides PRE 2, 3, 4, 5, 6, 7, 8, 9, 10, 11, 12 and 13 (see Table 3) was also tested using cytoplasmic extracts from different cell lines expressing appropriate PKC isoforms as described for Example 1. Briefly, the protein cytoplasmic extracts were separated by electrophoresis and transferred onto nitrocellulose membranes by standard Western blotting procedures. The bands on the Western blots were detected with matching primary antibodies and alkaline phosphatase conjugated secondary antibody. The bands were then scanned and the relative density measurements obtained.
(§2) This procedure to assess the binding characteristics of the PREs is based on competition binding of the PRE with the primary anti-isoform PKC specific antibodies. The lower the measured band density, the greater the binding of the PRE to the PKC isoform. The PREs were added at 10 and 20 times (10×, 20×) the primary antibody concentration, according to classical competition between antigenic peptide and primary antibody. The following cell lines (obtained from the ATCC) were used: H661—NCI human lung carcinoma NSCLC; MDAMB231—human highly invasive breast cancer cell line from pleural effusion; LS180—human colon adenocarcinoma; LnCAP—human prostate adenocarcinoma; CCD16Lu—human lung fibroblasts; Du145—human prostate carcinoma brain metastasis, and T24—human bladder carcinoma.
(§3) In these cases, the 20× band density figures relative to control and 10× values were reliable.

[2] = tested on: PKC-α; test: Binding of PREs to PKC-α in V5E-transfected IMR-32 cells and effect on cell morphology; type: cell-based, human; conditions: V5E-transfected IMR-32 cells; for Relative Fluorescence Intensity (mean): PRE by pinocytic endocytosis, transfected + reagent control 113
Description: Neuroblastoma cells from the IMR-32 cell line were stably transfected with a vector containing the V5E sequence of PKC-α as outlined above in Example 13. The V5E sequence is part of the antigenic amino acid sequence that is used to raise the commercially available anti-PKC-α isoform-specific antibody.
The peptides PRE 1, 2, 3, 4, 5, 6, 7, 8, 9, 10, 11, 12 and 13 (see Table 3) were incorporated into the transfected IMR-32 cells via pinocytic endocytosis (Molecular Probes) according to the supplier's recommendations. Following fixation and permeabilization, PKC-α was detected using an Alexa fluor secondary antibody (as described above in Example 8).
Results: The expressed V5E fragment adds to the decoration of PKC-α in the transfected IMR-32 cells since it is recognized by the same antibody (compare FIGS. 20A and 20B).

[3] = biological target: T2, PKC-ε (Homo sapiens, UniProt Q02156); test: Competitive binding assay using cell extracts (Western blot); design: cytoplasmic extracts from different cell lines expressing appropriate PKC isoforms; endogenous in cells; host or cells: CCD16Lu, LnCAP, Du145, MDAMB231, LS180; key: —: no detectable affinity; Low to very low affinity at 10X or 20X or both PRE concentrations in at least one cell line in the cell extract assay; Low affinity in purified isoform assay.; Moderate affinity at 10X or 20X or both PRE concentrations in at least one cell line in the cell extract assay.; High affinity at 10X or 20X or both PRE concentrations in at least one cell line in the cell extract assay; High affinity in purified isoform assay; conditions: Cell extract; PRE at 10X, 20X antibody concentration; Table 20
T2 sequence (Q02156 1-737): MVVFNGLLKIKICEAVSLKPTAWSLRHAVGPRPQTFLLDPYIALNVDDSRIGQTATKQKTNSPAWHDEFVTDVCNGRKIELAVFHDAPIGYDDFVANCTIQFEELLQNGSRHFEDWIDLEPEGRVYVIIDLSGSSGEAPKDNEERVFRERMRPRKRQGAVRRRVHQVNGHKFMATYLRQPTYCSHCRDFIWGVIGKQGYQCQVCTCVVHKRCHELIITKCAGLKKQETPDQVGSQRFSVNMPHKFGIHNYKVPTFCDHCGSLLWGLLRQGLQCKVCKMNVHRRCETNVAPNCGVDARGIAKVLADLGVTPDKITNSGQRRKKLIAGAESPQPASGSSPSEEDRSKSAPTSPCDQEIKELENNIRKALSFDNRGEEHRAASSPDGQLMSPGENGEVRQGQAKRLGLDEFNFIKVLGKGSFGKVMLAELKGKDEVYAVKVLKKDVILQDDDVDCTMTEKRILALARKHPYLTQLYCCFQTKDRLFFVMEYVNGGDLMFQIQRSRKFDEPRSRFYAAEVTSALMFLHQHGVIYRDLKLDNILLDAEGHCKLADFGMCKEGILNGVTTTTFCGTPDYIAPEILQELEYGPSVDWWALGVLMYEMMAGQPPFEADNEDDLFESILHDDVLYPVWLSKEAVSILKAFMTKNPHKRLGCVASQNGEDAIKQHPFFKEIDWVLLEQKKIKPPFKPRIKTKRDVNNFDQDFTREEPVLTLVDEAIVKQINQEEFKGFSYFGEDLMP
Experimental: as §1, §2, §3

In the case of Ac-AKGIQEVKGGDAQNLIGISI-NH2 [PRE 3], the “Affinity for PKC isoform ι” value [1] is reported as “L”, the “PKC-α label” value [2] is reported as “more intense perinuclear decoration” and the “Relative Fluorescence Intensity (mean)” value [2] is reported as 83. The “Affinity for PKC isoform ε” value [3] was “L”.

In the case of Ac-AKGIQEVKGGKDAQNLIGISI-NH2 [PRE 5], the “effect on cell morphology” value [2] is reported as “poor morphology”, the “effect on karyokinesis” value [2] is reported as “aborted karyokinesis” and the “Relative Fluorescence Intensity (mean)” value [2] is reported as 124. For the same substance, the “Affinity for PKC isoform ε” value [3] was “L”.

For Ac-ISIGILNQADK-NH2 [PRE 10], the “effect on karyokinesis” value [2] was “aborted karyokinesis” and the “Affinity for PKC isoform ε” value [3] was “M/L”.

In the case of Ac-ISIGILQNADK-NH2 [PRE 7], the “Affinity for PKC isoform ι” value [1] is reported as “—” and the “Affinity for PKC isoform ε” value [3] is reported as “—”.

For Ac-KDANQLIGISI-NH2 [PRE 6], the “Affinity for PKC isoform ι” value [1] was “—”, the “effect on karyokinesis” value [2] was “aborted karyokinesis” and the “Affinity for PKC isoform ε” value [3] was “M”.

For Ac-KDAQNLI-NH2 [PRE 12], the “Affinity for PKC isoform ι” value [1] was “—”, the “effect on cell morphology” value [2] was “little effect on the cell morphology” and the “Affinity for PKC isoform ε” value [3] was “—”.

With “Ac-KDAQNLIGISI-NH2 [PRE 4, Ac-KDAQNLIGISI-NH2]” the “Affinity for PKC isoform ι” value [1] was “M/L”, the “PKC-α label” value [2] was “decreased label” and the “effect on cell morphology” value [2] was “morphological changes with enlarged cells”. The “Relative Fluorescence Intensity (mean)” value [2] was 79 and the “Affinity for PKC isoform ε” value [3] was “H/L”.

Ac-RDAQNLI-NH2 [PRE 13] was tested, and the “Affinity for PKC isoform ι” value [1] was “—”, the “effect on cell morphology” value [2] was “little effect on the cell morphology” and the “Relative Fluorescence Intensity (mean)” value [2] was 116. For the same substance, the “Affinity for PKC isoform ε” value [3] was “—”.

For Ac-RDAQNLIGISI-NH2 [PRE 11], the “effect on cell morphology” value [2] was “apoptotis” and the “Affinity for PKC isoform ε” value [3] was “—”.

For Ac-isigilgnadk-NH2 [PRE 9], the “PKC-α label” value [2] was “strong perinuclear label”, the “Relative Fluorescence Intensity (mean)” value [2] was 121 and the “Affinity for PKC isoform ε” value [3] was “M/L”.

With ILEDKGGDAQNLIGISI [PRE 8] the “Affinity for PKC isoform ε” value [3] was “L”.

For RRKKGGKDFVVKR [PRE 1], the “Affinity for PKC isoform ι” value [1] was “—” and the “effect on cell morphology” value [2] was “many dividing cells and abnormal morphology”.
